{
  "source": "patent US11192903B2",
  "about": "“Zirconium-89 oxine complex as a cell labeling agent for positron emission tomography” (The United States of America, as represented by the …, priority 2014, dated 2021)",
  "key": {"[1]": {"target": "CXCR4 (Mus musculus, UniProt P70658)", "sequence (P70658 whole entry)": "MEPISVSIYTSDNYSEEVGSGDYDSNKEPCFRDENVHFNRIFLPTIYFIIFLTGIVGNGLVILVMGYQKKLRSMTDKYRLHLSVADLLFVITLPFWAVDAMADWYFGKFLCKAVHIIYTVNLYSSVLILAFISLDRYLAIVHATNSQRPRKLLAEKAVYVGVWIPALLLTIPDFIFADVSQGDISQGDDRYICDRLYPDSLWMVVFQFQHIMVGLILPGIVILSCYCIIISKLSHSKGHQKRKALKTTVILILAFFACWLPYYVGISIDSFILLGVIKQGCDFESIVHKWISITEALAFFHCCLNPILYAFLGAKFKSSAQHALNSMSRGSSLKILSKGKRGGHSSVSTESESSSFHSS", "conditions": "at 2 h; plerixafor 5 mg/kg i.v. 15 min before cell transfer", "description": "A CXCR4 inhibitor, plerixafor (Adooq Bioscience, Irvine, Calif.), was used to interrogate the role of CXCR4 in BM cell migration (n=4). Mice received an i.v. injection of plerixafor (5 mg/kg) 15 min before and 1 day after the ^89Zr-oxine labeled BM cell transfer (331 kBq/2×10^7 cells). Another group of mice received concurrent i.v. injections of G-CSF (2.5 μg, n=4). Deferoxamine was injected intramuscularly 15 min before and 1, 2, 3 and 4 hr after the cell injection. Serial microPET/CT images were acquired."}, "[2]": {"test_system": "CTLs", "conditions": "TCR stimulation then withdrawal, vs non-labeled", "description": "(§1) After ^89Zr-oxine complex labeling, DCs were stimulated with LPS (5 ng/ml) overnight. CD8 T cells labeled with ^89Zr-oxine complex were stimulated with plate coated anti-CD3 antibody (10 μg/ml) and anti-CD28 antibody (5 μg/ml) for 3 days, then transferred to an antibody-free culture supplemented with human IL-15 (3 nM)."}, "[3]": {"test_system": "DCs", "description": "as §1\n(§2) CTLs, both labeled and unlabeled, were activated by plate coated anti-CD3 antibody (10 μg/ml) and anti-CD28 antibody (5 μg/ml) for 1.5 day and expression of CD3, CD8, CD44, CD25, CD69, INF-γ and IL-2 which was evaluated by flow cytometry. Bone marrow-derived DCs on day 6 of culture with or without ^89Zr-oxine complex labeling were stimulated with LPS (1 ng/ml) overnight and surface expression of CD11c, CD80, CD86, CD40, MHC class I and MHC class II was examined. In another experiment, ^89Zr-labeled DCs were stimulated with LPS in the presence of OVA overnight, transferred to Rag1KO mice expressing Ly5.2 (2 million cells) pre-injected with CMFDA labeled OT-1 CD8 T cells expressing Ly5.1. Peripheral blood and splenocytes were collected 3.5 days later and dilution of CMFDA in OT-1 T cells was analyzed using flow cytometry gated on Ly5.1+ CD8 T cells."}, "[4]": {"test_system": "CTLs", "conditions": "TCR stimulation", "description": "as §2\nCTLs were TCR stimulated after the ^89Zr-oxine complex labeling."}, "[5]": {"test_system": "BM cells", "description": "BM cells were incubated with 11.0-55.5 kBq/10^6 cells of ^89Zr-oxine complex in PBS at 25:1 volume ratios for 20 minutes, washed twice in RPMI media and transferred to a new tube. […] To determine cell viability and retention of ^89Zr after the labeling, BM cells were labeled with 2 different radioactivity doses, 28.12 kBq/10^6 and 8.14 kBq/10^6 cells, and cultured with SCF, FLT3L and TPO (100 ng/ml each). The number of live cells was counted using 0.4% trypan blue dye (Life Technologies) at 0 h, 2 d, 4 d, and 7 d (n=3). At each time point, the cell suspension was spun to separate the supernatant and the cell pellet, and the radioactivity of both fractions was measured by a γ-counter (WIZARD^2 automatic gamma-counter, Perkin Elmer, Waltham, Mass.)."}, "[6]": {"test_system": "BM cells", "description": "The surface expressions of CD117, sca-1 and lineage markers (CD3, NK1.1, Ly6G, CD2, CD5 and B220) on BM cells were examined before and after ^89Zr-oxine labeling (3.15 kBq/2×10^6) and analyzed by flow cytometry using a FACS Calibur flow cytometer (Becton Dickinson, San Jose, Calif.) and analyzed using FlowJo software (Tree Star, Inc., Ashland, Oreg.). BM cell differentiation capability was examined by culturing the ^89Zr-labeled and non-labeled cells with GM-CSF (20 ng/ml) and IL-15 (25 nM) for differentiation to DCs and NK/NK-T cells (n=3). On day 10, the cells were harvested, stained with anti-CD11c, CD86, and NK1.1 antibodies, and analyzed on flow cytometry. For the GM-CSF culture, cell associated-^89Zr activity and cell number were also examined.", "remark": "listed apart in the source"}},
  "note": "Where two headings read alike, the source gives them in different places.",
  "data": [
    {"compound": "c1cc(CN2CCCNCCNCCCNCC2)ccc1CN1CCCNCCNCCCNCC1", "note": "[plerixafor]", "values": [
      {"measurement": "migration of labeled cells to the BM", "setting": "[1]", "result": "significantly inhibited"}
    ]},
    {"compound": "c1cnc2c([O][89Zr]([O]c3cccc4cccnc34)([O]c3cccc4cccnc34)[O]c3cccc4cccnc34)cccc2c1", "note": "[^89Zr-oxine complex]", "values": [
      {"measurement": "proliferation and contraction of labeled CTLs", "setting": "[2]", "result": "similarly to the non-labeled controls"},
      {"measurement": "antigen presentation to OT-1 T cells in vivo", "setting": "[3]; labeled DCs stimulated with LPS and OVA, injected into mice, flow cytometry 4 days after transfer", "result": "capable of presenting the antigen and inducing T cell activation and proliferation as well as non-labeled DCs"},
      {"measurement": "expression of B7 molecules, CD80 and CD86, on DCs", "setting": "[3]; prior to LPS activation", "result": "slightly increased expression"},
      {"measurement": "production of IFNγ and IL-2", "setting": "[4]", "result": "did not negatively affect"},
      {"measurement": "upregulation of CD69, CD25 and CD44 markers", "setting": "[4]; labeled vs non labeled CTLs", "result": "at the similar levels"},
      {"measurement": "live cell number", "setting": "[5]; BM cells labeled at 8.14 kBq/10^6 cells", "result": "slight proliferation after day 4"},
      {"measurement": "live cell number", "setting": "[5]; BM cells labeled at 28.12 kBq/10^6 cells", "result": "slightly decreased in number"},
      {"measurement": "suppression of the proliferation", "setting": "[5]; BM cells, lower labeling dose (8.14 kBq/10^6 cells), vs non-labeled control", "result": "approximately 50%"},
      {"measurement": "capacity to proliferate and differentiate", "setting": "[6]; 10 day culture with GM-CSF or IL-15", "result": "retained the capacity to proliferate and differentiate normally into mature cells"},
      {"measurement": "expression of CD117, sca-1 and lineage markers", "setting": "[6]; BM cells, 3.15 kBq/2×10^6", "result": "at similar levels to non-labeled controls"}
    ]}
  ]
}
